Laboratory results as given in patent US20190284148A1, “MICROBIOCIDAL OXADIAZOLE DERIVATIVES” (SYNGENTA PARTICIPATIONS AG, priority 2016, published 2019).

How the values were obtained:
[1] = system: Puccinia Recondita f. sp. Tritici; assay: Puccinia recondita f. sp. tritici / wheat / leaf disc preventative (brown rust); assay type: in vivo; conditions: foliar, 200 ppm in the applied formulation, wheat leaf segments cv. Kanzler, preventative (inoculated 1 day after application), assessed 7 to 9 days after application, read-out: disease control compared to untreated control leaf disks
Method: Leaf disks or leaf segments of various plant species are cut from plants grown in a greenhouse. The cut leaf disks or segments are placed in multiwell plates (24-well format) onto water agar. The leaf disks are sprayed with a test solution before (preventative) or after (curative) inoculation. Compounds to be tested are prepared as DMSO solutions (max. 10 mg/ml) which are diluted to the appropriate concentration with 0.025% Tween20 just before spraying. The inoculated leaf disks or segments are incubated under defined conditions (temperature, relative humidity, light, etc.) according to the respective test system. A single evaluation of disease level is carried out 3 to 14 days after inoculation, depending on the pathosystem. Percent disease control relative to the untreated check leaf disks or segments is then calculated. Wheat leaf segments cv. Kanzler were placed on agar in multiwell plates (24-well format) and sprayed with the formulated test compound diluted in water. The leaf disks were inoculated with a spore suspension of the fungus 1 day after application. The inoculated leaf segments were incubated at 19° C. and 75% relative humidity (rh) under a light regime of 12 hours light/12 hours darkness in a climate cabinet and the activity of a compound was assessed as percent disease control compared to untreated when an appropriate level of disease damage appears in untreated check leaf segments (7 to 9 days after application). The following compounds at 200 ppm in the applied formulation give at least 80% disease control in this test when compared to untreated control leaf disks under the same conditions, which show extensive disease development.

[2] = system: Puccinia Recondita f. sp. Tritici; assay: Puccinia recondita f. sp. tritici / wheat / leaf disc curative (brown rust); assay type: in vivo; conditions: foliar, 200 ppm in the applied formulation, wheat leaf segments cv. Kanzler, curative (applied 1 day after inoculation), assessed 6 to 8 days after application, read-out: disease control compared to untreated control leaf disks
Method: Leaf disks or leaf segments of various plant species are cut from plants grown in a greenhouse. The cut leaf disks or segments are placed in multiwell plates (24-well format) onto water agar. The leaf disks are sprayed with a test solution before (preventative) or after (curative) inoculation. Compounds to be tested are prepared as DMSO solutions (max. 10 mg/ml) which are diluted to the appropriate concentration with 0.025% Tween20 just before spraying. The inoculated leaf disks or segments are incubated under defined conditions (temperature, relative humidity, light, etc.) according to the respective test system. A single evaluation of disease level is carried out 3 to 14 days after inoculation, depending on the pathosystem. Percent disease control relative to the untreated check leaf disks or segments is then calculated.
Wheat leaf segments cv. Kanzler are placed on agar in multiwell plates (24-well format). The leaf segments are then inoculated with a spore suspension of the fungus. Plates were stored in darkness at 19° C. and 75% relative humidity. The formulated test compound diluted in water was applied 1 day after inoculation. The leaf segments were incubated at 19° C. and 75% relative humidity under a light regime of 12 hours light/12 hours darkness in a climate cabinet and the activity of a compound was assessed as percent disease control compared to untreated when an appropriate level of disease damage appears in untreated check leaf segments (6 to 8 days after application).
The following compounds at 200 ppm in the applied formulation give at least 80% disease control in this test when compared to untreated control leaf disks under the same conditions, which show extensive disease development.

[3] = system: Glomerella Lagenarium (Colletotrichum Lagenarium); assay: Glomerella lagenarium (Colletotrichum lagenarium) liquid culture / cucumber / preventative (anthracnose); assay type: cell-based; conditions: Colletotrichum orbiculare; 20 ppm in the applied formulation; liquid culture in PDB, 24° C., 3 to 4 days after application; read-out: disease control compared to untreated control (inhibition of growth measured photometrically)
Method: Mycelia fragments or conidia suspensions of a fungus prepared either freshly from liquid cultures of the fungus or from cryogenic storage, are directly mixed into nutrient broth. DMSO solutions of the test compound (max. 10 mg/ml) are diluted with 0.025% Tween20 by a factor of 50 and 10 μl of this solution is pipetted into a microtiter plate (96-well format). The nutrient broth containing the fungal spores/mycelia fragments is then added to give an end concentration of the tested compound. The test plates are incubated in the dark at 24° C. and 96% relative humidity. The inhibition of fungal growth is determined photometrically after 2 to 7 days, depending on the pathosystem, and percent antifungal activity relative to the untreated check is calculated.
Conidia of the fungus from cryogenic storage are directly mixed into nutrient broth (PDB—potato dextrose broth). After placing a (DMSO) solution of test compound into a microtiter plate (96-well format), the nutrient broth containing the fungal spores is added. The test plates are incubated at 24° C. and the inhibition of growth is measured photometrically 3 to 4 days after application.
The following compounds at 20 ppm in the applied formulation give at least 80% disease control in this test when compared to untreated control under the same conditions, which show extensive disease development.

Compound: CON(C)C(=O)Nc1ccc(-c2noc(C(F)(F)F)n2)cc1C [Compound 1.10, 1-methoxy-1-methyl-3-[2-methyl-4-[5-(trifluoromethyl)-1,2,4-oxadiazol-3-yl]phenyl]urea]
- pest or weed control at 200 ppm [1]: ≥ 80%
- pest or weed control at 200 ppm [2]: ≥ 80%
- inhibition at 20 ppm [3]: ≥ 80%
- melting point: 73 to 76 °C

Compound: CC(=O)Nc1ccc(-c2noc(C(F)(F)F)n2)cc1F [Compound 1.7, N-[2-fluoro-4-[5-(trifluoromethyl)-1,2,4-oxadiazol-3-yl]phenyl]acetamide]
- pest or weed control at 200 ppm [1]: ≥ 80%
- pest or weed control at 200 ppm [2]: ≥ 80%
- inhibition at 20 ppm [3]: ≥ 80%
- melting point: 120 to 126 °C

Compound: COC(C)C(=O)Nc1ccc(-c2noc(C(F)(F)F)n2)cc1C (stereo not drawn) [Compound 1.27, 2-methoxy-N-[2-methyl-4-[5-(trifluoromethyl)-1,2,4-oxadiazol-3-yl]phenyl]propanamide]
- pest or weed control at 200 ppm [2]: ≥ 80%
- inhibition at 20 ppm [3]: ≥ 80%

Compound: CC(C)C(=O)Nc1ccc(-c2noc(C(F)(F)F)n2)cc1F [Compound 1.14, N-[2-fluoro-4-[5-(trifluoromethyl)-1,2,4-oxadiazol-3-yl]phenyl]-2-methyl-propanamide]
- inhibition at 20 ppm [3]: ≥ 80%

Compound: C=CCONC(=O)Nc1ccc(-c2noc(C(F)(F)F)n2)cc1C [Compound 1.13, 1-allyloxy-3-[2-methyl-4-[5-(trifluoromethyl)-1,2,4-oxadiazol-3-yl]phenyl]urea]
- pest or weed control at 200 ppm [1]: ≥ 80%
- inhibition at 20 ppm [3]: ≥ 80%
- melting point: 101 to 104 °C

Compound: COCC(=O)Nc1ccc(-c2noc(C(F)(F)F)n2)cc1Cl [Compound 1.2, N-[2-chloro-4-[5-(trifluoromethyl)-1,2,4-oxadiazol-3-yl]phenyl]-2-methoxy-acetamide]
- inhibition at 20 ppm [3]: ≥ 80%
- melting point: 77 to 84 °C

Compound: CCC(COC)C(=O)Nc1ccc(-c2noc(C(F)(F)F)n2)cc1F (stereo not drawn) [Compound 1.18, N-[2-fluoro-4-[5-(trifluoromethyl)-1,2,4-oxadiazol-3-yl]phenyl]-2-(methoxymethyl) butanamide]
- pest or weed control at 200 ppm [1]: ≥ 80%
- pest or weed control at 200 ppm [2]: ≥ 80%
- inhibition at 20 ppm [3]: ≥ 80%

Compound: Cc1cc(-c2noc(C(F)(F)F)n2)ccc1NC(=O)CC#N [Compound 1.26, 2-cyano-N-[2-methyl-4-[5-(trifluoromethyl)-1,2,4-oxadiazol-3-yl]phenyl]acetamide]
- pest or weed control at 200 ppm [1]: ≥ 80%
- inhibition at 20 ppm [3]: ≥ 80%

Compound: CCC(C)C(=O)Nc1ccc(-c2noc(C(F)(F)F)n2)cc1F (stereo not drawn) [Compound 1.16, N-[2-fluoro-4-[5-(trifluoromethyl)-1,2,4-oxadiazol-3-yl]phenyl]-2-methyl-butanamide]
- inhibition at 20 ppm [3]: ≥ 80%

Compound: CCC(=O)Nc1ccc(-c2noc(C(F)(F)F)n2)cc1C [Compound 1.4, N-[2-methyl-4-[5-(trifluoromethyl)-1,2,4-oxadiazol-3-yl]phenyl]propanamide]
- inhibition at 20 ppm [3]: ≥ 80%
- melting point: 178 to 185 °C

Compound: CC(CO)(CCl)C(=O)Nc1ccc(-c2noc(C(F)(F)F)n2)cc1F (stereo not drawn) [Compound 1.17, 2-(chloromethyl)-N-[2-fluoro-4-[5-(trifluoromethyl)-1,2,4-oxadiazol-3-yl]phenyl]-3-hydroxy-2-methyl-propanamide]
- pest or weed control at 200 ppm [1]: ≥ 80%
- inhibition at 20 ppm [3]: ≥ 80%

Compound: CCC(COC)C(=O)Nc1ccc(-c2noc(C(F)(F)F)n2)cc1C (stereo not drawn) [Compound 1.24, 2-(methoxymethyl)-N-[2-methyl-4-[5-(trifluoromethyl)-1,2,4-oxadiazol-3-yl]phenyl]butanamide]
- inhibition at 20 ppm [3]: ≥ 80%

Compound: COCCC(=O)Nc1ccc(-c2noc(C(F)(F)F)n2)cc1F [Compound 1.15, N-[2-fluoro-4-[5-(trifluoromethyl)-1,2,4-oxadiazol-3-yl]phenyl]-3-methoxy-propanamide]
- pest or weed control at 200 ppm [2]: ≥ 80%
- inhibition at 20 ppm [3]: ≥ 80%

Compound: COCC(=O)Nc1ccc(-c2noc(C(F)(F)F)n2)cc1C [Compound 1.5, 2-methoxy-N-[2-methyl-4-[5-(trifluoromethyl)-1,2,4-oxadiazol-3-yl]phenyl]acetamide]
- pest or weed control at 200 ppm [1]: ≥ 80%
- inhibition at 20 ppm [3]: ≥ 80%
- melting point: 73 to 80 °C

Compound: CCC(=O)Nc1ccc(-c2noc(C(F)(F)F)n2)cc1F [Compound 1.6, N-[2-fluoro-4-[5-(trifluoromethyl)-1,2,4-oxadiazol-3-yl]phenyl]propanamide]
- pest or weed control at 200 ppm [2]: ≥ 80%
- inhibition at 20 ppm [3]: ≥ 80%
- melting point: 123 to 128 °C

Compound: COCCCC(=O)Nc1ccc(-c2noc(C(F)(F)F)n2)cc1F [Compound 1.19, N-[2-fluoro-4-[5-(trifluoromethyl)-1,2,4-oxadiazol-3-yl]phenyl]-4-methoxy-butanamide]
- pest or weed control at 200 ppm [1]: ≥ 80%
- inhibition at 20 ppm [3]: ≥ 80%

Compound: C=C(C)CONC(=O)Nc1ccc(-c2noc(C(F)(F)F)n2)cc1C [Compound 1.12, 1-(2-methylallyloxy)-3-[2-methyl-4-[5-(trifluoromethyl)-1,2,4-oxadiazol-3-yl]phenyl]urea]
- pest or weed control at 200 ppm [1]: ≥ 80%
- inhibition at 20 ppm [3]: ≥ 80%
- melting point: 114 to 117 °C

Compound: COCC(=O)Nc1ccc(-c2noc(C(F)(F)F)n2)cc1F [Compound 1.8, N-[2-fluoro-4-[5-(trifluoromethyl)-1,2,4-oxadiazol-3-yl]phenyl]-2-methoxy-acetamide]
- pest or weed control at 200 ppm [1]: ≥ 80%
- inhibition at 20 ppm [3]: ≥ 80%
- melting point: 42 to 46 °C

Compound: CC(=O)Nc1ccc(-c2noc(C(F)(F)F)n2)cc1Cl [Compound 1.1, N-[2-chloro-4-[5-(trifluoromethyl)-1,2,4-oxadiazol-3-yl]phenyl]acetamide]
- inhibition at 20 ppm [3]: ≥ 80%
- melting point: 155 to 170 °C

Compound: Cc1cc(-c2noc(C(F)(F)F)n2)ccc1NC(=O)C(C)(CO)CCl (stereo not drawn) [Compound 1.23, 2-(chloromethyl)-3-hydroxy-2-methyl-N-[2-methyl-4-[5-(trifluoromethyl)-1,2,4-oxadiazol-3-yl]phenyl]propanamide]
- inhibition at 20 ppm [3]: ≥ 80%

Compound: COCCCC(=O)Nc1ccc(-c2noc(C(F)(F)F)n2)cc1C [Compound 1.25, 4-methoxy-N-[2-methyl-4-[5-(trifluoromethyl)-1,2,4-oxadiazol-3-yl]phenyl]butanamide]
- inhibition at 20 ppm [3]: ≥ 80%

Compound: COCCC(=O)Nc1ccc(-c2noc(C(F)(F)F)n2)cc1C [Compound 1.21, 3-methoxy-N-[2-methyl-4-[5-(trifluoromethyl)-1,2,4-oxadiazol-3-yl]phenyl]propanamide]
- inhibition at 20 ppm [3]: ≥ 80%

Compound: Cc1cc(-c2noc(C(F)(F)F)n2)ccc1NC(=O)CC(F)(F)F [Compound 1.28, 3,3,3-trifluoro-N-[2-methyl-4-[5-(trifluoromethyl)-1,2,4-oxadiazol-3-yl]phenyl]propanamide]
- pest or weed control at 200 ppm [1]: ≥ 80%

Compound: C=CCON(C)C(=O)Nc1ccc(-c2noc(C(F)(F)F)n2)cc1C [Compound 1.11, 1-allyloxy-1-methyl-3-[2-methyl-4-[5-(trifluoromethyl)-1,2,4-oxadiazol-3-yl]phenyl]urea]
- inhibition at 20 ppm [3]: ≥ 80%
- melting point: 62 to 66 °C
